From US9546162B2, “Compounds and methods for skin repair” (Allergan, Inc., priority 2013, dated 2017)
Like-named read-outs stand apart in the source and are kept apart here.

Legend:
[1] = biological target: T1, EP4 (Homo sapiens (Human), UniProt P35408); assay: EP4 radioligand binding (Ki), [3H]PGE2; conditions: EP4, HEK-293 membranes
Method: (§1) HEK-293 cells stably expressing the human or feline FP receptor, or EP1, EP2, or EP4 receptors were washed with TME buffer, scraped from the bottom of the flasks, and homogenized for 30 sec using a Brinkman PT 10/35 polytron. TME buffer was added to achieve a final 40 ml volume in the centrifuge tubes (the composition of TME is 100 mM TRIS base, 20 mM MgCl2, […]; 10N HCl is added to achieve a pH of 7.4).
(§2) The cell homogenate was centrifuged at 19000 r.p.m. for 20 min at 4° C. using a Beckman Ti-60 rotor. The resultant pellet was resuspended in TME buffer to give a final 1 mg/ml protein concentration, as determined by Biorad assay. Radioligand binding competition assays vs. [^3H-]17-phenyl PGF2a (5 nM) were performed in a 100 μl volume for 60 min. Binding reactions were started by adding plasma membrane fraction. The reaction was terminated by the addition of 4 ml ice-cold TRIS-HCl buffer and rapid filtration through glass fiber GF/B filters using a Brandel cell harvester. The filters were washed 3 times with ice-cold buffer and oven dried for one hour.
(§3) [^3H—] PGE2 (specific activity 180 Ci mmol) was used as the radioligand for EP receptors. [^3H] 17-phenyl PGF2a was employed for FP receptor binding studies. Binding studies employing EP1, EP2, EP4 and FP receptors were performed in duplicate in at least three separate experiments. A 200 μl assay volume was used. Incubations were for 60 min at 25° C. and were terminated by the addition of 4 ml of ice-cold 50 mM TRIS-HCl, followed by rapid filtration through Whatman GF/B filters and three additional 4 ml washes in a cell harvester (Brandel). Competition studies were performed using a final concentration of 5 nM [^3H]-PGE2, or 5 nM [^3H] 17-phenyl PGF2a and non-specific binding determined with 10^−5M of unlabeled PGE2, or 17-phenyl PGF2a, according to receptor subtype studied.

[2] = biological target: T2, EP2 (Homo sapiens (Human), UniProt P43116); assay: EP2 competition binding (Ki), [3H]PGE2; conditions: EP2, HEK 293 cells
T2 sequence (P43116 whole entry): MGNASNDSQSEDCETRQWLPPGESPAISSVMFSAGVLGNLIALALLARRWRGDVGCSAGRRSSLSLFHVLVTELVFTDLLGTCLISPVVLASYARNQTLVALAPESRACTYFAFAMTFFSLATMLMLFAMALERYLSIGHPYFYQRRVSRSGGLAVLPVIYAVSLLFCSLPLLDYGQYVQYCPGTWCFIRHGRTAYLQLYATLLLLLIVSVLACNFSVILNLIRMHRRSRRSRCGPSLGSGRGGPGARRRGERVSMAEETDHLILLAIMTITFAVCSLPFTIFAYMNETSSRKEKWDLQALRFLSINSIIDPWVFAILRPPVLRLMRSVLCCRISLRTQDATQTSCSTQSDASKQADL
Method: Competition binding experiments were performed in a medium containing Hank's balanced salt solution, Hepes 20 mM, pH 7.3, membranes (˜60 μg protein) or 2×10^5 cells from HEK 293 cells stably expressing human EP2 receptors, [^3H]PGE2 (10 nM) and various concentrations of test compounds in a total volume of 300 μl. Reaction mixtures were incubated at 23° C. for 60 min, and were filtered over Whatman GF/B filters under vacuum. Filters were washed three times with 5 ml ice-cold buffer containing 50 mM Tris/HCl (pH 7.3). Non-specific binding was estimated in the presence of excess unlabeled PGE2 (10 μM). Binding data fitted to the binding model for a single class of binding sites, using nonlinear regression analysis.
as §1, §2, §3

[3] = biological target: T1, EP4; assay: EP4 cAMP EC50; format: cell-based
[4] = biological target: T2, EP2; assay: EP2 cAMP EC50; format: cell-based

T1 sequence (P35408 whole entry): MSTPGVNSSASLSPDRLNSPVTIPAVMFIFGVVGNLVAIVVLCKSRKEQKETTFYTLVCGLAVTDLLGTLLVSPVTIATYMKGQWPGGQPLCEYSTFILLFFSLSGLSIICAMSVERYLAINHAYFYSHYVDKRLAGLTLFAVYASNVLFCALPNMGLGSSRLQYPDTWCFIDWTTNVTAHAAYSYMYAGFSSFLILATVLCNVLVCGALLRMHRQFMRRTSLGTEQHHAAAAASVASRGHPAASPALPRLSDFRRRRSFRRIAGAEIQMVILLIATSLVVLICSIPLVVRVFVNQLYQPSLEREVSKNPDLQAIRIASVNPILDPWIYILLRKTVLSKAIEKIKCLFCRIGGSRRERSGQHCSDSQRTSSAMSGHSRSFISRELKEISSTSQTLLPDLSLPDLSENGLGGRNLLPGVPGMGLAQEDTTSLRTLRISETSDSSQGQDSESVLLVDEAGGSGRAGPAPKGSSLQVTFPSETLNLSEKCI

| EP4 Ki ([1]; read-out: EP4 Ki EC50) [nM] | Ki [2] [nM] | EC50 [3] [nM] | EC50 [4] [nM] | EP4 Ki [1] [nM] | EP4 cAMP EC50 [3] [nM] | EP2 Ki [2] [nM] | Compound |
| --- | --- | --- | --- | --- | --- | --- | --- |
| 3 | 2 | 7.2 |  |  |  |  | COc1cc(CC2CCc3cccc(CCc4ccc(C(=O)O)cc4)c32)cc(OC)c1 (stereo not shown) [Entry 1] |
| 42 | 95 | 7 | 28 |  |  |  | COc1cc(/C=C2\CCc3cccc(CCc4ccc(C(=O)O)cc4)c32)cc(OC)c1 [Entry 2] |
| 90 | 116 | 43 | 130 |  |  |  | COc1cc(CC2=CCCc3cccc(CCc4ccc(C(=O)O)cc4)c32)cc(OC)c1 [Entry 3] |
| 52 | 61 | 71 |  |  |  |  | COc1ccc(OC)c(CC2=CCc3cccc(CCc4ccc(C(=O)O)cc4)c32)c1 [Entry 4] |
| 251 | 53 | 562 |  |  |  |  | COc1cccc(CC2=CCc3cccc(CCc4ccc(C(=O)O)cc4)c32)c1OC [Entry 6] |
| 174 |  |  |  |  |  |  | O=C(O)c1ccc(CCc2cccc3c2N(Cc2ccc4ccccc4c2)CC3)cc1 [Entry 6] |
| 34 | 20 | 33 | 161 |  |  |  | COc1ccc(CC2=CCc3cccc(CCc4ccc(C(=O)O)cc4)c32)cc1OC [Entry 7] |
| 5850 |  |  |  |  |  |  | O=C(O)c1ccc(CCc2cccc3c2N(Cc2cc(OCc4ccccc4)cc(OCc4ccccc4)c2)CC3)cc1 [Entry 7] |
| 71 | 67 | 107 | 57 |  |  |  | COc1ccccc1CC1=CCc2cccc(CCc3ccc(C(=O)O)cc3)c21 [Entry 8] |
| 453 |  |  |  |  |  |  | O=C(O)c1ccc(CCc2cccc3c2N(Cc2ccc4c(c2)OCO4)CC3)cc1 [Entry 8] |
| 453 |  |  |  |  |  |  | COc1cc(CN2CCCc3cccc(CCc4ccc(C(=O)O)cc4)c32)cc(OC)c1 [Entry 9] |
| 195 | 27 | 93 | 114 |  |  |  | COc1ccc(CC2=CCc3cccc(CCc4ccc(C(=O)O)cc4)c32)cc1 [Entry 9] |
|  |  |  |  | > 10000 | > 10000 |  | COc1cccc(CCN2Cc3cccc(CCc4ccc(C(=O)O)cc4)c3C2)c1 [Entry 10] |
| 56 | 18 | 23 | 2 |  |  |  | O=C(O)c1ccc(CCc2cccc3c2C(Cc2cc(Cl)cc(Cl)c2)=CC3)cc1 [Entry 10] |
|  |  |  |  |  | > 10000 |  | COc1cccc(CN2Cc3cccc(CCc4ccc(C(=O)O)cc4)c3C2)c1 [Entry 11] |
| 240 | 6 | 220 | 13 |  |  |  | Cc1cc(C)cc(CC2=CCc3cccc(CCc4ccc(C(=O)O)cc4)c32)c1 [Entry 11] |
| 52 | 83 | 41 | 25 |  |  |  | COc1cc(CC2=CCc3c(F)ccc(CCc4ccc(C(=O)O)cc4)c32)cc(OC)c1 [Entry 12] |

| EP4 Ki ([1]; read-out: EP4 Ki EC50) [nM] | Ki [2] [nM] | EC50 [3] [nM] | EC50 [4] [nM] | EP4 Ki [1] [nM] | EP4 cAMP EC50 [3] [nM] | EP2 Ki [2] [nM] | Compound |
| --- | --- | --- | --- | --- | --- | --- | --- |
| 154 | 469 | 16 |  |  |  |  | COc1cc(CC2CCc3cccc(OCc4ccc(C(=O)O)cc4)c32)cc(OC)c1 (stereo not shown) [Entry 13] |
| 161 | 47 |  |  |  |  |  | COc1cc(CN2CCc3cccc(CCc4ccc(C(=O)O)s4)c32)cc(OC)c1 [Entry 13] |
| 1490 |  |  |  |  | > 10000 | > 10000 | COc1cc(/C=C2\CCc3cccc(OCc4ccc(C(=O)O)cc4)c32)cc(OC)c1 [Entry 14] |
| 0.8 | 3 | 1 | 11 |  |  |  | COc1cc(CC2=CCc3cccc(CCc4ccc(C(=O)O)cc4)c32)cc(OC)c1 [Entry 15] |
|  |  | 3130 |  |  |  |  | COc1cccc(Cn2ccc3cccc(CCc4ccc(C(=O)O)cc4)c32)c1 [Entry 15] |
| 469 | 1700 |  |  |  |  |  | COc1cc(CC2=CCc3ccc(OC)c(CCc4ccc(C(=O)O)cc4)c32)cc(OC)c1 [Entry 16] |
|  |  |  |  |  | > 10000 | > 10000 | COc1cccc(CC(=O)N2CCc3cccc(CCc4ccc(C(=O)O)cc4)c32)c1 [Entry 17] |
| 736 | 8 | 296 |  |  |  |  | O=C(O)c1ccc(CCc2cccc3c2C(Cc2cc(C(F)(F)F)cc(C(F)(F)F)c2)=CC3)cc1 [Entry 17] |
| 134 | 27 | 57 | 6 |  |  |  | O=C(O)c1ccc(CCc2cccc3c2C(Cc2cc(F)cc(F)c2)=CC3)cc1 [Entry 18] |
| 0.4 | 18 | 2 | 36 |  |  |  | COc1cc(CC2=CCc3cc(F)cc(CCc4ccc(C(=O)O)cc4)c32)cc(OC)c1 [Entry 19] |
| 8230 | 776 |  |  |  | > 10000 |  | COc1cc(OC)cc(S(=O)(=O)N2CCc3cccc(CCc4ccc(C(=O)O)cc4)c32)c1 [Entry 19] |
| 1230 |  |  |  |  |  | > 10000 | COc1cc(CC2=CCc3cccc(-c4cccc(/C=C/C(=O)O)c4)c32)cc(OC)c1 [Entry 20] |
|  |  |  |  | > 10000 | > 10000 |  | COc1cccc(S(=O)(=O)N2CCc3cccc(CCc4ccc(C(=O)O)cc4)c32)c1 [Entry 20] |
| 1200 | 4770 |  |  |  | > 10000 |  | COc1cc(CC2=CCc3cccc(/C=C/c4ccc(C(=O)O)cc4)c32)cc(OC)c1 [Entry 21] |
| 1170 |  |  |  |  |  | > 10000 | COc1cc(CC2=CCc3cccc(-c4cccc(OCC(=O)O)c4)c32)cc(OC)c1 [Entry 22] |
| 4470 |  |  |  |  | > 10000 | > 10000 | COc1cc(CC2=CCc3cccc(-c4ccc(OCC(=O)O)cc4)c32)cc(OC)c1 [Entry 23] |
| 3600 |  |  |  |  | > 10000 | > 10000 | COc1cc(CC2=CCc3cccc(C#Cc4ccc(C(=O)O)cc4)c32)cc(OC)c1 [Entry 24] |
